Assay results: US9840495B2, “Oxindole derivatives carrying a piperidyl-substituted azetidinyl substituent and use thereof for treating vasopressine-related diseases” (AbbVie Deutschland GmbH & Co. KG, priority 2013, dated 2017)
Counter-ions that a name gives are not always drawn. Values belong to the compound of their own block, whether it stands above or below them.

How the values were obtained:
[1] = molecular target: T1, human vasopressin V1b receptor (Homo sapiens, UniProt P47901); assay: biochemical
T1 sequence (P47901 1-424): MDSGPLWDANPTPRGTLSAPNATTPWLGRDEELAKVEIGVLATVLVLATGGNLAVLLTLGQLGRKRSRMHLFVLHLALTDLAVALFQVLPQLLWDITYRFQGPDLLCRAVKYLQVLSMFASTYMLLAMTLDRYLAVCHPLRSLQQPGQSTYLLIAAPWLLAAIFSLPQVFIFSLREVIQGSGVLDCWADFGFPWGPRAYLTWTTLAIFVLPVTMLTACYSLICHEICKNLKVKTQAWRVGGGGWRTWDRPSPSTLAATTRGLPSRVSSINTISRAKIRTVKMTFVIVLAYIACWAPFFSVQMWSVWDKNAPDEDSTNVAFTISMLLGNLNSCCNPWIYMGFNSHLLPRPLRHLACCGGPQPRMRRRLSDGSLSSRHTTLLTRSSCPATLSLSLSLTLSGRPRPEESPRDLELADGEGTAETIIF

[2] = molecular target: human vasopressin V1a receptor (Homo sapiens, UniProt P37288); assay: Vasopressin V1a receptor binding assay (125I-AVP displacement, CHO-K1 membranes); details: selectivity quotient, human V1a vs human V1b receptor binding
Chain of human vasopressin V1a receptor (P37288 whole entry): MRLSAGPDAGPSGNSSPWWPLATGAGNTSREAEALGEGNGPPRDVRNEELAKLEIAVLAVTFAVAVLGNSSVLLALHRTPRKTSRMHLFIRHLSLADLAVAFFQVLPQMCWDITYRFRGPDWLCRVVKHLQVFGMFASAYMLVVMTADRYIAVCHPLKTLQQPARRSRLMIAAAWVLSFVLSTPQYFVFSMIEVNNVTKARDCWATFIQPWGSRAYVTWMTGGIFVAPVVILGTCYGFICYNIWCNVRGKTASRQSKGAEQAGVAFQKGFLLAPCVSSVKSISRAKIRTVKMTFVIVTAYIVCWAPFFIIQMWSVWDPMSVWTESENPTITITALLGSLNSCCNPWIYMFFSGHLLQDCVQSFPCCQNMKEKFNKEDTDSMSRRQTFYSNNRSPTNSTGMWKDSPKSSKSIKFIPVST

SMILES: COc1ccc(S(=O)(=O)N2C(=O)[C@@](NC(=O)N3CC(N4CCC(N(C(C)C)C5COC5)CC4)C3)(c3cccnc3OC)c3cc(C#N)ccc32)c(OC)c1 [Example 38, (S)—N-(5-Cyano-1-((2,4-dimethoxyphenyl)sulfonyl)-3-(2-methoxypyridin-3-yl)-2-oxoindolin-3-yl)-3-(4-(isopropyl(oxetan-3-yl)amino)piperidin-1-yl)azetidine-1-carboxamide]
Ki [1]: 10 to 100 nM
Ki(h-V1a)/Ki(h-V1b) [2]: + (10-<25)

SMILES: CCOc1ncccc1[C@]1(NC(=O)N2CC(N3CCC(N4CCOCC4)CC3)C2)C(=O)N(S(=O)(=O)c2ccccc2OC)c2ccc(C#N)cc21 [Example 37, (S)—N-(5-Cyano-3-(2-ethoxypyridin-3-yl)-1-((2-methoxyphenyl)sulfonyl)-2-oxoindolin-3-yl)-3-(4-morpholinopiperidin-1-yl)azetidine-1-carboxamide]
Ki [1]: 1 to 10 nM
Ki(h-V1a)/Ki(h-V1b) [2]: +++ (>75)

SMILES: CCOc1ncccc1[C@]1(NC(=O)N2CC(N3CCC(N4CCOCC4)CC3)C2)C(=O)N(S(=O)(=O)c2ccc(F)cc2OC)c2ccc(C#N)cc21 [Example 28, (S)—N-(5-cyano-3-(2-ethoxypyridin-3-yl)-1-((4-fluoro-2-methoxyphenyl)sulfonyl)-2-oxoindolin-3-yl)-3-(4-morpholinopiperidin-1-yl)azetidine-1-carboxamide]
Ki [1]: 1 to 10 nM
Ki(h-V1a)/Ki(h-V1b) [2]: +++ (>75)

SMILES: CCOc1ncccc1[C@]1(NC(=O)N2CC(N3CCC(N4CC(OC)C4)CC3)C2)C(=O)N(S(=O)(=O)c2ccc(OC)cc2OC)c2ccc(C#N)cc21 [Example 41, (S)—N-(5-Cyano-1-((2,4-dimethoxyphenyl)sulfonyl)-3-(2-ethoxypyridin-3-yl)-2-oxoindolin-3-yl)-3-(4-(3-methoxyazetidin-1-yl)piperidin-1-yl)azetidine-1-carboxamide]
Ki [1]: 1 to 10 nM
Ki(h-V1a)/Ki(h-V1b) [2]: +++ (>75)

SMILES: COc1ccc(S(=O)(=O)N2C(=O)[C@@](NC(=O)N3CC(N4CCC(N(C)C5COC5)CC4)C3)(c3cccnc3OC)c3cc(C#N)ccc32)cc1 [Example 35, (S)—N-(5-cyano-1-((4-methoxyphenyl)sulfonyl)-3-(2-methoxypyridin-3-yl)-2-oxoindolin-3-yl)-3-(4-(methyl(oxetan-3-yl)amino)piperidin-1-yl)azetidine-1-carboxamide]
Ki [1]: 1 to 10 nM
Ki(h-V1a)/Ki(h-V1b) [2]: ++ (25-75)

SMILES: CCOc1ncccc1[C@]1(NC(=O)N2CC(N3CCC(N(C)C4COC4)CC3)C2)C(=O)N(S(=O)(=O)c2ccc(OC)cc2OC)c2cc(F)c(F)cc21 [Example 11, N-[(3S)-1-[(2,4-Dimethoxyphenyl)sulfonyl]-3-(2-ethoxypyridin-3-yl)-5,6-difluoro-2-oxo-2,3-dihydro-1H-indol-3-yl]-3-{4-[methyl(oxetan-3-yl)amino]piperidin-1-yl}azetidine-1-carboxamide]
Ki [1]: 1 to 10 nM
Ki(h-V1a)/Ki(h-V1b) [2]: ++ (25-75)

SMILES: CCOc1ncccc1[C@]1(NC(=O)N2CC(N3CCC(N(C)CCOC)CC3)C2)C(=O)N(S(=O)(=O)c2ccc(OC)cc2OC)c2ccc(C#N)cc21 [Example 15, (S)—N-(5-Cyano-1-((2,4-dimethoxyphenyl)sulfonyl)-3-(2-ethoxypyridin-3-yl)-2-oxoindolin-3-yl)-3-(4-((2-methoxyethyl)(methyl)amino)piperidin-1-yl)azetidine-1-carboxamide]
Ki [1]: 1 to 10 nM
Ki(h-V1a)/Ki(h-V1b) [2]: +++ (>75)

SMILES: CCN(C1CCN(C2CN(C(=O)N[C@@]3(c4cccnc4OC)C(=O)N(S(=O)(=O)c4ccc(OC)cc4OC)c4ccc(C#N)cc43)C2)CC1)C1COC1 [Example 23, (S)—N-(5-Cyano-1-((2,4-dimethoxyphenyl)sulfonyl)-3-(2-methoxypyridin-3-yl)-2-oxoindolin-3-yl)-3-(4-(ethyl(oxetan-3-yl)amino)piperidin-1-yl)azetidine-1-carboxamide]
Ki [1]: 1 to 10 nM
Ki(h-V1a)/Ki(h-V1b) [2]: ++ (25-75)

SMILES: CCOc1ncccc1[C@]1(NC(=O)N2CC(N3CCC(N4CCCO4)CC3)C2)C(=O)N(S(=O)(=O)c2ccc(OC)cc2OC)c2ccc(C#N)cc21 [Example 17, (S)—N-(5-Cyano-1-((2,4-dimethoxyphenyl)sulfonyl)-3-(2-ethoxypyridin-3-yl)-2-oxoindolin-3-yl)-3-(4-(isoxazolidin-2-yl)piperidin-1-yl)azetidine-1-carboxamide]
Ki [1]: 10 to 100 nM
Ki(h-V1a)/Ki(h-V1b) [2]: +++ (>75)

SMILES: CCOc1ncccc1[C@]1(NC(=O)N2CC(N3CCC(N4CCOCC4)CC3)C2)C(=O)N(S(=O)(=O)c2ccc(OC)cn2)c2ccc(C#N)cc21 [Example 36, (S)—N-(5-Cyano-3-(2-ethoxypyridin-3-yl)-1-((5-methoxypyridin-2-yl)sulfonyl)-2-oxoindolin-3-yl)-3-(4-morpholinopiperidin-1-yl)azetidine-1-carboxamide×TFA]
Ki [1]: 1 to 10 nM
Ki(h-V1a)/Ki(h-V1b) [2]: + (10-<25)

Other lines, results leading:

Ki [1]: < 1 nM
Ki(h-V1a)/Ki(h-V1b) [2]: +++ (>75)
SMILES: CCOc1ncccc1[C@]1(NC(=O)N2CC(N3CCC(N(C)C4COC4)CC3)C2)C(=O)N(S(=O)(=O)c2ccc(OC)cc2OC)c2cc(F)c(C#N)cc21 [Example 10, (S)—N-(5-Cyano-1-((2,4-dimethoxyphenyl)sulfonyl)-3-(2-ethoxypyridin-3-yl)-6-fluoro-2-oxoindolin-3-yl)-3-(4-(methyl(oxetan-3-yl)amino)piperidin-1-yl)azetidine-1-carboxamide]

Ki [1]: 1 to 10 nM
Ki(h-V1a)/Ki(h-V1b) [2]: + (10-<25)
SMILES: COc1ccc(S(=O)(=O)N2C(=O)[C@@](NC(=O)N3CC(N4CCC(N(C)C5COC5)CC4)C3)(c3cccnc3OC)c3cc(C#N)ccc32)c(F)c1 [Example 32, (S)—N-(5-Cyano-1-((2-fluoro-4-methoxyphenyl)sulfonyl)-3-(2-methoxypyridin-3-yl)-2-oxoindolin-3-yl)-3-(4-(methyl(oxetan-3-yl)amino)piperidin-1-yl)azetidine-1-carboxamide]

Ki [1]: < 1 nM
Ki(h-V1a)/Ki(h-V1b) [2]: +++ (>75)
SMILES: CCOc1ncccc1[C@]1(NC(=O)N2CC(N3CCC(N4CC5(COC5)C4)CC3)C2)C(=O)N(S(=O)(=O)c2ccc(OC)cc2OC)c2ccc(C#N)cc21 [Example 19, (S)-3-(4-(2-Oxa-6-azaspiro[3.3]heptan-6-yl)piperidin-1-yl)-N-(5-cyano-1-((2,4-dimethoxyphenyl)sulfonyl)-3-(2-ethoxypyridin-3-yl)-2-oxoindolin-3-yl)azetidine-1-carboxamide]

Ki [1]: < 1 nM
Ki(h-V1a)/Ki(h-V1b) [2]: +++ (>75)
SMILES: CCOc1ncccc1[C@]1(NC(=O)N2CC(N3CCC(N(C)C4COC4)CC3)C2)C(=O)N(S(=O)(=O)c2ccc(OC)cc2OC)c2ccc(C#N)cc21 [Example 2, (S)—N-(5-cyano-1-((2,4-dimethoxyphenyl)sulfonyl)-3-(2-ethoxypyridin-3-yl)-2-oxoindolin-3-yl)-3-(4-(methyl(oxetan-3-yl)amino)piperidin-1-yl)azetidine-1-carboxamide]

Ki [1]: 1 to 10 nM
Ki(h-V1a)/Ki(h-V1b) [2]: + (10-<25)
SMILES: COc1ccc(S(=O)(=O)N2C(=O)[C@@](NC(=O)N3CC(N4CCC(NC5COC5)CC4)C3)(c3cccnc3OC)c3cc(C#N)ccc32)c(OC)c1 [Example 20, (S)—N-(5-Cyano-1-((2,4-dimethoxyphenyl)sulfonyl)-3-(2-methoxypyridin-3-yl)-2-oxoindolin-3-yl)-3-(4-(oxetan-3-ylamino)piperidin-1-yl)azetidine-1-carboxamide]

Ki [1]: < 1 nM
Ki(h-V1a)/Ki(h-V1b) [2]: + (10-<25)
SMILES: COc1ccc(S(=O)(=O)N2C(=O)[C@@](NC(=O)N3CC(N4CCC(N(C)C5CCOCC5)CC4)C3)(c3cccnc3OC)c3cc(C#N)ccc32)c(OC)c1 [Example 21, (S)—N-(5-Cyano-1-((2,4-dimethoxyphenyl)sulfonyl)-3-(2-methoxypyridin-3-yl)-2-oxoindolin-3-yl)-3-(4-(methyl(tetrahydro-2H-pyran-4-yl)amino)piperidin-1-yl)azetidine-1-carboxamide]

Ki [1]: < 1 nM
Ki(h-V1a)/Ki(h-V1b) [2]: +++ (>75)
SMILES: CCOc1ncccc1[C@]1(NC(=O)N2CC(N3CCC(N4CCOCC4)CC3)C2)C(=O)N(S(=O)(=O)c2ccc(OC)cc2OC)c2ccc(C#N)cc21 [Example 1, (S)—N-(5-cyano-1-((2,4-dimethoxyphenyl)sulfonyl)-3-(2-ethoxypyridin-3-yl)-2-oxoindolin-3-yl)-3-(4-morpholinopiperidin-1-yl)azetidine-1-carboxamide]

Ki [1]: < 1 nM
Ki(h-V1a)/Ki(h-V1b) [2]: +++ (>75)
SMILES: CCOc1ncccc1[C@]1(NC(=O)N2CC(N3CCC(N4CC(C5COC5)C4)CC3)C2)C(=O)N(S(=O)(=O)c2ccc(OC)cc2OC)c2ccc(C#N)cc21 [Example 18, (S)—N-(5-Cyano-1-((2,4-dimethoxyphenyl)sulfonyl)-3-(2-ethoxypyridin-3-yl)-2-oxoindolin-3-yl)-3-(4-(3-(oxetan-3-yl)azetidin-1-yl)piperidin-1-yl)azetidine-1-carboxamide]

Ki [1]: < 1 nM
Ki(h-V1a)/Ki(h-V1b) [2]: ++ (25-75)
SMILES: CCOc1ncccc1[C@]1(NC(=O)N2CC(N3CCC(N4CCOCC4)CC3)C2)C(=O)N(S(=O)(=O)c2ccc(OC)cc2OC)c2cc(F)c(F)cc21 [Example 8, (S)—N-(1-((2,4-Dimethoxyphenyl)sulfonyl)-3-(2-ethoxypyridin-3-yl)-5,6-difluoro-2-oxoindolin-3-yl)-3-(4-morpholinopiperidin-1-yl)azetidine-1-carboxamide]

Ki [1]: < 1 nM
Ki(h-V1a)/Ki(h-V1b) [2]: +++ (>75)
SMILES: CCOc1ncccc1[C@]1(NC(=O)N2CC(N3CCC(N4CCOCC4)CC3)C2)C(=O)N(S(=O)(=O)c2ccc(OC)cc2F)c2ccc(C#N)cc21 [Example 27, (S)—N-(5-cyano-3-(2-ethoxypyridin-3-yl)-1-((2-fluoro-4-methoxyphenyl)sulfonyl)-2-oxoindolin-3-yl)-3-(4-morpholinopiperidin-1-yl)azetidine-1-carboxamide]
